Measurements reported in patent US7759345B2, “Antitumoral derivatives of ET-743” (priority 2001, dated 2010).
Like-named read-outs stand apart in the source and are kept apart here.

Assays:
[1] = test system: SK-BR-3; assay: Inhibition of cells growth by colorimetric assay (SRB), SK-BR-3; format: cell-based; details: for GI50: read-out: SK-BR3 GI50
Procedure, shortened: (§1)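 Sulforhodamine B protein-stain readout (490 nm) after 48 h drug exposure, with GI, TGI and LC parameters calculated from triplicate means. Cells seeded at 5×10^3 per well, allowed 18 h drug-free attachment; dose range 10 to 10^−8 μg/ml, vehicle DMSO/EtOH/PBS (0.5:0.5:99).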

[2] = test system: A-549; assay: Inhibition of cells growth by colorimetric assay (SRB), A-549; format: cell-based
Procedure, shortened: as §1

[3] = test system: Liver
Text: (§2) Toxicity was asssessed by the methods reported in Toxicology in Vitro, 15 (2001) 571-577, J. Luber Narod et al.: “Evaluation of the use of in vitro methodolodies as tools for screening new compounds for potential in vivo toxicity”.

[4] = test system: DU-145; assay: Inhibition of cells growth by colorimetric assay (SRB), DU-145; format: cell-based; details: for GI50: read-out: DU-145 GI50
Procedure, shortened: as §1

[5] = test system: LNCaP; assay: Inhibition of cells growth by colorimetric assay (SRB), LNCaP; format: cell-based
Procedure, shortened: as §1

[6] = test system: IGROV-ET; assay: Inhibition of cells growth by colorimetric assay (SRB), IGROV-ET; format: cell-based; details: for GI50: read-out: IGROV-ET GI50
Procedure, shortened: as §1

[7] = test system: PANC-1; assay: Inhibition of cells growth by colorimetric assay (SRB), PANC-1; format: cell-based; details: for GI50 / LC50 (concentration for 50% net cell kill): Homo sapiens, PANC-1, 48 h; for GI50: read-out: PANC-1 GI50
Procedure, shortened: as §1

[8] = test system: IGROV-1; assay: Inhibition of cells growth by colorimetric assay (SRB), IGROV-1; format: cell-based; details: for GI50: read-out: IGROV GI50
Procedure, shortened: as §1

[9] = test system: LoVo; assay: Inhibition of cells growth by colorimetric assay (SRB), LoVo; format: cell-based; details: for GI50: read-out: LOVO GI50
Procedure, shortened: as §1

[10] = test system: HT-29; assay: Inhibition of cells growth by colorimetric assay (SRB), HT-29; format: cell-based; details: for GI50: read-out: HT-29 GI50
Procedure, shortened: as §1

[11] = test system: K-562; assay: Inhibition of cells growth by colorimetric assay (SRB), K-562; format: cell-based; details: for GI50: read-out: K-562 GI50
Procedure, shortened: as §1

[12] = test system: Skeletal
Text: as §2

[13] = test system: Myelo
Text: as §2

[14] = test system: LoVo-Dox; assay: Inhibition of cells growth by colorimetric assay (SRB), LoVo-Dox; format: cell-based; details: for GI50: read-out: LOVO-DOX GI50
Procedure, shortened: as §1

[15] = test system: Kidney
Text: as §2

[16] = test system: SK-OV-3; assay: Inhibition of cells growth by colorimetric assay (SRB), SK-OV-3; format: cell-based; details: for GI50 / LC50: Homo sapiens, SK-OV-3, 48 h; for GI50: read-out: SK-OV3 GI50
Procedure, shortened: as §1

[17] = test system: HMEC1; assay: Inhibition of cells growth by colorimetric assay (SRB), HMEC1; format: cell-based; details: for GI50: read-out: HMEC-1 GI50
Procedure, shortened: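 Compound in DMSO/EtOH/PBS vehicle was applied at 10 to 10^−8 μg/ml to attached cells (5×10^3/well, 18 h) for 48 h. Cells were then fixed with cold TCA and stained with 0.4% SRB in 1% acetic acid.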

[18] = test system: SK-MEL-28; assay: Inhibition of cells growth by colorimetric assay (SRB), SK-MEL-28; format: cell-based; details: for GI50: read-out: MEL-28 GI50
Procedure, shortened: as §1

[19] = test system: Heart
Text: as §2

[20] = IGROV-ET, SRB, 48 hours exposure
[21] = LOVO-DOX, SRB, 48 hours exposure
[22] = Homo sapiens, 48 h, SRB assay, 48 hours exposure

COc1cc2c(cc1OC(=O)Cc1cc(=O)oc3cc(N(C)C)ccc13)CCN[C@]21CS[C@@H]2c3c(OC(C)=O)c(C)c4c(c3[C@H](COC1=O)N1C2[C@H]2c3c(cc(C)c(OC)c3OC(=O)Cc3cc(=O)oc5cc(N(C)C)ccc35)C[C@@H]([C@@H]1O)N2C)OCO4 (stereo partly shown) [Compound 77]
SK-BR3 TGI ([1]; SK-BR3, SRB, 48 hours exposure): 2.04E-09 | GI50 ([1]; SK-BR3, SRB, 48 hours exposure): 0.475 nM | CC50 ([1]; read-out: SK-BR3 LC50, SK-BR3, SRB, 48 hours exposure): 8.12 nM | TGI A-549 ([2]; A-549, SRB, 48 hours exposure): 3.64E-09 | GI50 ([2]; A-549, SRB, 48 hours exposure, read-out: GI50 A-549): 2.11 nM | LC50 (concentration for 50% cell killing) ([2]; read-out: A-549 LC50, A-549, SRB, 48 hours exposure): 6.29 nM | Toxicity Data Liver [3]: 9.53E-09 | DU-145 TGI ([4]; DU-145, SRB, 48 hours exposure): 1.45E-09 | GI50 ([4]; DU-145, SRB, 48 hours exposure): 0.488 nM | CC50 ([4]; Homo sapiens, DU-145, 48 h, read-out: DU-145 LC50, DU-145, SRB, 48 hours exposure): 10100 nM | LNCAP TGI ([5]; LNCAP, SRB, 48 hours exposure): 6.12E-10 | GI50 ([5]; read-out: LNCAP GI50, LNCAP, SRB, 48 hours exposure): 0.328 nM | CC50 ([5]; read-out: LNCAP LC50, LNCAP, SRB, 48 hours exposure): 1.58 nM | IGROV-ET TGI [6, 20]: 9.57E-08 | GI50 [6, 20]: 4.22 nM | CC50 ([6]; read-out: IGROV-ET LC50, IGROV-ET, SRB, 48 hours exposure): 303 nM | GI50 ([7]; PANC-1, SRB, 48 hours exposure): 3.27 nM | LC50 (concentration for 50% net cell kill) ([7]; read-out: PANC-1 LC50, PANC-1, SRB, 48 hours exposure): 6300 nM | PANC-1 TGI ([7]; PANC-1, SRB, 48 hours exposure): 9.14E-09 | IGROV TGI ([8]; IGROV, SRB, 48 hours exposure): 1.53E-09 | GI50 ([8]; IGROV, SRB, 48 hours exposure): 0.454 nM | CC50 ([8]; read-out: IGROV LC50, IGROV, SRB, 48 hours exposure): 8.82 nM | LOVO TGI ([9]; LOVO, SRB, 48 hours exposure): 3.96E-09 | GI50 ([9]; LOVO, SRB, 48 hours exposure): 1.91 nM | LC50 (concentration for 50% cell killing) ([9]; read-out: LOVO LC50, LOVO, SRB, 48 hours exposure): 8.21 nM | HT-29 TGI ([10]; HT-29, SRB, 48 hours exposure): 9.52E-09 | GI50 ([10]; HT-29, SRB, 48 hours exposure): 2.96 nM | LC50 (concentration for 50% cell killing) ([10]; Homo sapiens, HT-29, 48 h, read-out: HT-29 LC50, HT-29, SRB, 48 hours exposure): 10100 nM | K-562 TGI ([11]; K-562, SRB, 48 hours exposure): 7.77E-10 | GI50 ([11]; K-562, SRB, 48 hours exposure): 0.277 nM | LC50 (50% cell killing) ([11]; read-out: K-562 LC50, K-562, SRB, 48 hours exposure): 37.9 nM | Toxicity Data Skeletal [12]: 2.20E-09 | Toxicity Data Myelo [13]: 8.52E-09 | CC50 ([14]; Homo sapiens, 48 h, read-out: LOVO-DOX LC50, LOVO-DOX, SRB, 48 hours exposure): 10100 nM | LOVO-DOX TGI [14, 21]: 9.39E-08 | GI50 [14, 21]: 31.3 nM | Toxicity Data Kidney [15]: 3.22E-09 | GI50 ([16]; SK-OV3, SRB, 48 hours exposure): 2.55 nM | LC50 ([16]; read-out: SK-OV3 LC50, SK-OV3, SRB, 48 hours exposure): 10100 nM | SK-OV3 TGI ([16]; SK-OV3, SRB, 48 hours exposure): 7.76E-09 | HMEC-1 TGI ([17]; HMEC-1, SRB, 48 hours exposure): 5.28E-08 | GI50 ([17]; HMEC-1, SRB, 48 hours exposure): 5.28 nM | LC50 ([17]; Homo sapiens, HMEC-1, 48 h, read-out: HMEC-1 LC50, HMEC-1, SRB, 48 hours exposure): 10100 nM | MEL-28 TGI ([18]; MEL-28, SRB, 48 hours exposure): 5.06E-10 | GI50 ([18]; MEL-28, SRB, 48 hours exposure): 0.266 nM | CC50 ([18]; read-out: MEL-28 LC50, MEL-28, SRB, 48 hours exposure): 0.962 nM | Toxicity Data Heart [19]: 1.64E-08

COc1cc2c(cc1O)CCN[C@]21CS[C@@H]2c3c(OC(=O)CCCCC4SCC5NC(=O)NC54)c(C)c4c(c3[C@H](COC1=O)N1C2[C@H]2c3c(cc(C)c(OC)c3O)C[C@@H]([C@@H]1O)N2C)OCO4 (stereo partly shown) [Compound 171]
GI50 ([1]; Homo sapiens, SK-BR-3, 48 h, SRB assay, 48 hours exposure): 2.47 nM | CC50 ([1]; Homo sapiens, SK-BR-3, 48 h, read-out: SK-BR3 LC50, SRB assay, 48 hours exposure): 37.5 nM | SK-BR3 TGI ([1]; SRB assay, 48 hours exposure): 6.54E-09 | GI50 ([2]; Homo sapiens, A549, 48 h, SRB assay, 48 hours exposure, read-out: A-549 GI50): 22.8 nM | LC50 (concentration for 50% cell killing) ([2]; Homo sapiens, A549, 48 h, read-out: A-549 LC50, SRB assay, 48 hours exposure): 96 nM | A-549 TGI ([2]; SRB assay, 48 hours exposure): 4.68E-08 | Toxicity Data Liver [3]: 8.37E-08 | GI50 ([4]; Homo sapiens, DU-145, 48 h, SRB assay, 48 hours exposure): 5.05 nM | CC50 ([4]; Homo sapiens, DU-145, 48 h, read-out: DU-145 LC50, SRB assay, 48 hours exposure): 10600 nM | DU-145 TGI ([4]; SRB assay, 48 hours exposure): 2.96E-08 | GI50 ([5]; Homo sapiens, LNCaP, 48 h, read-out: LNCAP GI50, SRB assay, 48 hours exposure): 1.66 nM | CC50 ([5]; Homo sapiens, LNCaP, 48 h, read-out: LNCAP LC50, SRB assay, 48 hours exposure): 5.94 nM | LNCAP TGI ([5]; SRB assay, 48 hours exposure): 3.14E-09 | GI50 [6, 22]: 225 nM | CC50 ([6]; Homo sapiens, 48 h, read-out: IGROV-ET LC50, SRB assay, 48 hours exposure): 10600 nM | IGROV-ET TGI ([6]; SRB assay, 48 hours exposure): 7.08E-07 | GI50 ([7]; SRB assay, 48 hours exposure): 7.3 nM | LC50 (concentration for 50% net cell kill) ([7]; read-out: PANC-1 LC50, SRB assay, 48 hours exposure): 1060 nM | PANC-1 TGI ([7]; SRB assay, 48 hours exposure): 4.63E-08 | GI50 ([8]; Homo sapiens, IGROV-1, 48 h, SRB assay, 48 hours exposure): 1.93 nM | CC50 ([8]; Homo sapiens, IGROV-1, 48 h, read-out: IGROV LC50, SRB assay, 48 hours exposure): 8.8 nM | IGROV TGI ([8]; SRB assay, 48 hours exposure): 4.12E-09 | GI50 ([9]; Homo sapiens, LoVo, 48 h, SRB assay, 48 hours exposure): 23.7 nM | LC50 (concentration for 50% cell killing) ([9]; Homo sapiens, LoVo, 48 h, read-out: LOVO LC50, SRB assay, 48 hours exposure): 10600 nM | LOVO TGI ([9]; SRB assay, 48 hours exposure): 7.66E-08 | GI50 ([10]; Homo sapiens, HT-29, 48 h, SRB assay, 48 hours exposure): 3.91 nM | LC50 (concentration for 50% cell killing) ([10]; Homo sapiens, HT-29, 48 h, read-out: HT-29 LC50, SRB assay, 48 hours exposure): 10600 nM | HT-29 TGI ([10]; SRB assay, 48 hours exposure): 3.24E-08 | GI50 ([11]; Homo sapiens, K562, 48 h, SRB assay, 48 hours exposure): 0.243 nM | LC50 (50% cell killing) ([11]; Homo sapiens, K562, 48 h, read-out: K-562 LC50, SRB assay, 48 hours exposure): 0.982 nM | K-562 TGI ([11]; SRB assay, 48 hours exposure): 4.88E-10 | Toxicity Data Skeletal [12]: 3.58E-08 | Toxicity Data Myelo [13]: 1.37E-07 | GI50 [14, 22]: 938 nM | CC50 ([14]; Homo sapiens, 48 h, read-out: LOVO-DOX LC50, SRB assay, 48 hours exposure): 10600 nM | LOVO-DOX TGI ([14]; SRB assay, 48 hours exposure): 1.23E-06 | Toxicity Data Kidney [15]: 2.70E-08 | GI50 ([16]; SRB assay, 48 hours exposure): 6.89 nM | LC50 ([16]; read-out: SK-OV3 LC50, SRB assay, 48 hours exposure): 10600 nM | SK-OV3 TGI ([16]; SRB assay, 48 hours exposure): 9.73E-08 | GI50 ([17]; Homo sapiens, HMEC-1, 48 h, SRB assay, 48 hours exposure): 2.94 nM | LC50 ([17]; Homo sapiens, HMEC-1, 48 h, read-out: HMEC-1 LC50, SRB assay, 48 hours exposure): 10600 nM | HMEC-1 TGI ([17]; SRB assay, 48 hours exposure): 6.90E-09 | GI50 ([18]; Homo sapiens, SK-MEL-28, 48 h, SRB assay, 48 hours exposure): 5.65 nM | CC50 ([18]; Homo sapiens, SK-MEL-28, 48 h, read-out: MEL-28 LC50, SRB assay, 48 hours exposure): 102 nM | MEL-28 TGI ([18]; SRB assay, 48 hours exposure): 2.33E-08 | Toxicity Data Heart [19]: 3.13E-08
